What all share (assay): cells
Holding throughout (design): species or system NCI-60 human tumour cell lines; NCI-60 one-dose screen at 10 uM, percent growth inhibition versus untreated control cells

In one test the test system is CAKI-1. Conditions: Homo sapiens, CAKI-1; growth inhibition, one dose; read-out: Growth% inhibition / 5e.
Another test concerns HCC-2998. As to conditions: Homo sapiens, HCC 2998; growth inhibition, one dose; read-out: Growth% inhibition / 5e.
The subject of a further test is HCT-116. Conditions: Homo sapiens, HCT-116; growth inhibition, one dose; read-out: Growth% inhibition / 5e.
The subject of a further test is HL-60(TB). Conditions: Homo sapiens, HL-60; growth inhibition, one dose; read-out: Growth% inhibition / 5e.
The subject of the next test is HOP-62. Conditions: Homo sapiens, HOP-62; growth inhibition, one dose; read-out: Growth% inhibition / 5e.
The subject of a further test is HOP-92. As to conditions: Homo sapiens, HOP-92; growth inhibition, one dose; read-out: Growth% inhibition / 5e.
A further test deals with K-562. Conditions: Homo sapiens, K562; growth inhibition, one dose; read-out: Growth% inhibition / 5e.
In the next test the test system is KM12. As to conditions: Homo sapiens, KM12; growth inhibition, one dose; read-out: Growth% inhibition / 5e.
Another test concerns M14. Conditions: Homo sapiens, M14; growth inhibition, one dose; read-out: Growth% inhibition / 5e.
For the next test, the system named is MDA-MB-231/ATCC. As to conditions: Homo sapiens, MDA-MB-231; growth inhibition, one dose; read-out: Growth% inhibition / 5e.
The next test has as its system MDA-MB-435. Conditions: Homo sapiens, MDA-MB-435; growth inhibition, one dose; read-out: Growth% inhibition / 5e.
For another test, the system named is NCI/ADR-RES. Conditions: Homo sapiens, NCI/ADR-RES; growth inhibition, one dose; read-out: Growth% inhibition / 5e.
A further test has as its system OVCAR-5. Conditions: Homo sapiens, OVCAR-5; growth inhibition, one dose; read-out: Growth% inhibition / 5e.
The next test concerns RPMI-8226. As to conditions: Homo sapiens, RPMI-8226; growth inhibition, one dose; read-out: Growth% inhibition / 5e.
The test system of another test is SF-539. Conditions: Homo sapiens, SF-539; growth inhibition, one dose; read-out: Growth% inhibition / 5e.
The test system of the next test is T-47D. As to conditions: Homo sapiens, T47D; growth inhibition, one dose; read-out: Growth% inhibition / 5e.
For a further test, the system named is UACC-257. As to conditions: Homo sapiens, UACC-257; growth inhibition, one dose; read-out: Growth% inhibition / 5e.
The subject of another test is UACC-62. As to conditions: Homo sapiens, UACC-62; growth inhibition, one dose; read-out: Growth% inhibition / 5e.

Molecules are shown by their SMILES.

As to `CCN(CC)c1ccc(/C=N/NC(=O)/C=C/C=C/c2ccc3c(c2)OCO3)c(O)c1` [5e, (2E,4E)-5-(Benzo[d][1,3]dioxol-5-yl)-N′-((E)-4-(diethylamino)-2-hydroxybenzylidene)penta-2,4-dienehydrazide], the inhibition at 10 µM was 70.7% in the test with CAKI-1; 46% in the test with HCC-2998; 92.1% in the test on HCT-116; 97.3% in the test on HL-60(TB); 71.5% with HOP-62; 51.6% with HOP-92. Moreover, the inhibition at 10 µM in the test with K-562 was 82.4%; with KM12, 69.8%; in the test on M14, 63.6%; in the test on MDA-MB-231/ATCC it was 56.8%; in the test on MDA-MB-435, 51.1%; in the test with NCI/ADR-RES, 82.5%. Also, the inhibition at 10 µM with OVCAR-5 turned out to be 39.1%; in the test with RPMI-8226, 46.4%; in the test on SF-539, 77.3%; in the test on T-47D, 73.7%; with UACC-257, 75.8%; in the test with UACC-62, 70.9%.

(Values after article PMC9037111, “Structure-based design, synthesis, and biological evaluation of novel piperine–resveratrol hybrids as antiproliferative agents targeting SIRT-2” (RSC Advances, 2021).)
